Source: patent US20240000872A1, “NOVEL BACTERIOPHAGE THAT LYSES ACINETOBACTER GENUS BACTERIA HAVING RESISTANCE TO ANTIBIOTICS” (priority 2020, published 2024)

Test system: Acinetobacter baumannii strains
Test: Antibiotic susceptibility test (CLSI disk diffusion test method, read per CLSI 2016)
Type: cell-based
Experimental: (§1) Strain identification was performed using a kit such as AT 32 GN system (bioMérieux, Marcy l'Etoile, France). […] In Table 2 below, S, I, and R are the results obtained by evaluating susceptibility to the antibacterial agents, in which ‘S’ means susceptible, ‘I’ means intermediate, and ‘R’ means resistant.
as §1, with “as ATB” for “as AT”, “system (bioMédrieux,” for “system (bioMérieux,”, “Table 6” for “Table 2”
as §1, with “as ATB” for “as AT”, “Table 10” for “Table 2”, “susceptible, T” for “susceptible, ‘I’”

CO/N=C(\C(=O)N[C@@H]1C(=O)N2C(C(=O)O)=C(COC(C)=O)CS[C@H]12)c1csc(N)n1 [Cefotaxime, cefotaxime]
antibiotic susceptibility class (host strain YMC14/01/C29): R | antibiotic susceptibility class (host strain YMC14/01/IP122): R | antibiotic susceptibility class (host strain YMC14/01/L8): R | antibiotic susceptibility class (host strain YMC14/01/P31): R | antibiotic susceptibility class (host strain YMC14/01/P117): R | antibiotic susceptibility class (host strain YMC14/01/P224): R | antibiotic susceptibility class (host strain YMC14/01/P727): R | antibiotic susceptibility class (host strain YMC14/01/P728): R | antibiotic susceptibility class (host strain YMC14/01/R130): R | antibiotic susceptibility class (host strain YMC14/01/R160): R | antibiotic susceptibility class (host strain YMC14/01/R198): R | antibiotic susceptibility class (host strain YMC14/01/R257): R | antibiotic susceptibility class (host strain YMC14/01/R270): R | antibiotic susceptibility class (host strain YMC14/01/R324): R | antibiotic susceptibility class (host strain YMC14/01/R443): R | antibiotic susceptibility class (host strain YMC14/01/R451): R | antibiotic susceptibility class (host strain YMC14/01/R560): R | antibiotic susceptibility class (host strain YMC14/01/R617): R | antibiotic susceptibility class (host strain YMC14/01/R671): R | antibiotic susceptibility class (host strain YMC14/01/R732): R | antibiotic susceptibility class (host strain YMC14/01/R767): R | antibiotic susceptibility class (host strain YMC14/01/R904): R | antibiotic susceptibility class (host strain YMC14/01/R905): R | antibiotic susceptibility class (host strain YMC14/01/R921): R | antibiotic susceptibility class (host strain YMC14/01/R941): R | antibiotic susceptibility class (host strain YMC14/01/R958): R | antibiotic susceptibility class (host strain YMC14/01/R1006): R | antibiotic susceptibility class (host strain YMC14/01/R1199): R | antibiotic susceptibility class (host strain YMC14/01/R1659): R | antibiotic susceptibility class (host strain YMC14/01/R1722): R | antibiotic susceptibility class (host strain YMC14/01/R1752): R | antibiotic susceptibility class (host strain YMC14/01/R2429): R | antibiotic susceptibility class (host strain YMC14/01/R2572): R | antibiotic susceptibility class (host strain YMC14/01/R2855): R | antibiotic susceptibility class (host strain YMC14/01/R2945): R | antibiotic susceptibility class (host strain YMC14/01/R3007): R | antibiotic susceptibility class (host strain YMC14/01/R3129): R | antibiotic susceptibility class (host strain YMC14/01/R3317): R | antibiotic susceptibility class (host strain YMC14/01/R3474): R | antibiotic susceptibility class (host strain YMC14/01/R3574): R | antibiotic susceptibility class (host strain YMC14/01/U313): R | antibiotic susceptibility class (host strain YMC14/01/U318): R | antibiotic susceptibility class (host strain YMC14/02/L18): R | antibiotic susceptibility class (host strain YMC14/02/P47): R | antibiotic susceptibility class (host strain YMC14/02/R1860): R | antibiotic susceptibility class (host strain YMC14/02/R2417): R | antibiotic susceptibility class (host strain YMC14/02/R2599): R | antibiotic susceptibility class (host strain YMC14/02/R2668): R | antibiotic susceptibility class (host strain YMC14/02/R2758): R | antibiotic susceptibility class (host strain YMC14/02/R2781): R | antibiotic susceptibility class (host strain YMC14/02/R3106): R | antibiotic susceptibility class (host strain YMC14/02/R3419): R | antibiotic susceptibility class (host strain YMC14/02/U1607): R | antibiotic susceptibility class (host strain YMC14/03/L9): R | antibiotic susceptibility class (host strain YMC14/03/P471): R | antibiotic susceptibility class (host strain YMC14/03/R122): R | antibiotic susceptibility class (host strain YMC14/03/R217): R | antibiotic susceptibility class (host strain YMC14/03/R380): R | antibiotic susceptibility class (host strain YMC14/03/R618): R | antibiotic susceptibility class (host strain YMC14/03/R2144): R | antibiotic susceptibility class (host strain YMC14/03/U4616): R | antibiotic susceptibility class (host strain YMC14/04/R1078): R | antibiotic susceptibility class (host strain YMC14/04/R1080): R | antibiotic susceptibility S/I/R (host strain YMC14/06/R2359): R | susceptibility category (S/I/R) (host strain YMC14/06/R2359): R | antibiotic susceptibility S/I/R (host strain YMC14/08/R1169): R | susceptibility category (S/I/R) (host strain YMC14/08/R1169): R | antibiotic susceptibility S/I/R (host strain YMC14/08/T90): R | susceptibility category (S/I/R) (host strain YMC14/08/T90): R | antibiotic susceptibility S/I/R (host strain YMC15/02/R436): R | susceptibility category (S/I/R) (host strain YMC15/02/R436): R | antibiotic susceptibility S/I/R (host strain YMC15/02/T28): R | susceptibility category (S/I/R) (host strain YMC15/02/T28): R | antibiotic susceptibility S/I/R (host strain YMC15/03/R1604): R | susceptibility category (S/I/R) (host strain YMC15/03/R1604): R | antibiotic susceptibility S/I/R (host strain YMC15/09/R1869): R | susceptibility category (S/I/R) (host strain YMC15/09/R1869): R | antibiotic susceptibility S/I/R (host strain YMC16/01/P11): R | susceptibility category (S/I/R) (host strain YMC16/01/P11): R | antibiotic susceptibility S/I/R (host strain YMC16/01/R123): R | susceptibility category (S/I/R) (host strain YMC16/01/R123): R | antibiotic susceptibility S/I/R (host strain YMC16/01/R198): R | susceptibility category (S/I/R) (host strain YMC16/01/R198): R | antibiotic susceptibility S/I/R (host strain YMC16/01/R353): R | susceptibility category (S/I/R) (host strain YMC16/01/R353): R | antibiotic susceptibility S/I/R (host strain YMC16/01/R380): R | susceptibility category (S/I/R) (host strain YMC16/01/R380): R | antibiotic susceptibility S/I/R (host strain YMC16/01/R397): R | susceptibility category (S/I/R) (host strain YMC16/01/R397): R | antibiotic susceptibility S/I/R (host strain YMC16/01/R405): R | susceptibility category (S/I/R) (host strain YMC16/01/R405): R | susceptibility category (S/I/R) (host strain YMC16/03/R4461): I | antibiotic susceptibility S/I/R (host strain YMC16/05/R2210): R | susceptibility category (S/I/R) (host strain YMC16/05/R2210): R | antibiotic susceptibility S/I/R (host strain YMC16/07/R2512): R | susceptibility category (S/I/R) (host strain YMC16/07/R2512): R | antibiotic susceptibility S/I/R (host strain YMC16/09/R2471): R | susceptibility category (S/I/R) (host strain YMC16/09/R2471): R | antibiotic susceptibility S/I/R (host strain YMC16/10/R2537): R | susceptibility category (S/I/R) (host strain YMC16/10/R2537): R | antibiotic susceptibility S/I/R (host strain YMC16/12/B11422): R | susceptibility category (S/I/R) (host strain YMC16/12/B11422): R | antibiotic susceptibility S/I/R (host strain YMC16/12/B11449): R | susceptibility category (S/I/R) (host strain YMC16/12/B11449): R | antibiotic susceptibility S/I/R (host strain YMC16/12/B13325): R | susceptibility category (S/I/R) (host strain YMC16/12/B13325): R | antibiotic susceptibility S/I/R (host strain YMC16/12/P503): R | susceptibility category (S/I/R) (host strain YMC16/12/P503): R | antibiotic susceptibility S/I/R (host strain YMC16/12/R4637): R | susceptibility category (S/I/R) (host strain YMC16/12/R4637): R | antibiotic susceptibility S/I/R (host strain YMC17/01/B8053): R | susceptibility category (S/I/R) (host strain YMC17/01/B8053): R | antibiotic susceptibility S/I/R (host strain YMC17/01/B10087): R | susceptibility category (S/I/R) (host strain YMC17/01/B10087): R | antibiotic susceptibility S/I/R (host strain YMC17/01/B12075): R | susceptibility category (S/I/R) (host strain YMC17/01/B12075): R | antibiotic susceptibility S/I/R (host strain YMC17/01/B13454): R | susceptibility category (S/I/R) (host strain YMC17/01/B13454): R | antibiotic susceptibility S/I/R (host strain YMC17/01/P518): R | susceptibility category (S/I/R) (host strain YMC17/01/P518): R | antibiotic susceptibility S/I/R (host strain YMC17/01/R2812): R | susceptibility category (S/I/R) (host strain YMC17/01/R2812): R | antibiotic susceptibility S/I/R (host strain YMC17/02/B14): R | susceptibility category (S/I/R) (host strain YMC17/02/B14): R | antibiotic susceptibility S/I/R (host strain YMC17/02/B87): R | susceptibility category (S/I/R) (host strain YMC17/02/B87): R | antibiotic susceptibility S/I/R (host strain YMC17/02/B721): R | susceptibility category (S/I/R) (host strain YMC17/02/B721): R | antibiotic susceptibility S/I/R (host strain YMC17/02/B4039): R | susceptibility category (S/I/R) (host strain YMC17/02/B4039): R | antibiotic susceptibility S/I/R (host strain YMC17/02/B4520): R | susceptibility category (S/I/R) (host strain YMC17/02/B4520): R | antibiotic susceptibility S/I/R (host strain YMC17/02/B4864): S | susceptibility category (S/I/R) (host strain YMC17/02/B4864): S | antibiotic susceptibility S/I/R (host strain YMC17/02/B8414): R | susceptibility category (S/I/R) (host strain YMC17/02/B8414): R | antibiotic susceptibility S/I/R (host strain YMC17/02/P523): R | susceptibility category (S/I/R) (host strain YMC17/02/P523): R | antibiotic susceptibility S/I/R (host strain YMC17/02/R541): R | susceptibility category (S/I/R) (host strain YMC17/02/R541): R | antibiotic susceptibility S/I/R (host strain YMC17/02/R2392): R | susceptibility category (S/I/R) (host strain YMC17/02/R2392): R | antibiotic susceptibility S/I/R (host strain YMC17/03/B4730): R | susceptibility category (S/I/R) (host strain YMC17/03/B4730): R | antibiotic susceptibility S/I/R (host strain YMC17/03/B5000): R | susceptibility category (S/I/R) (host strain YMC17/03/B5000): R | antibiotic susceptibility S/I/R (host strain YMC17/03/P971): R | susceptibility category (S/I/R) (host strain YMC17/03/P971): R | antibiotic susceptibility S/I/R (host strain YMC17/03/R348): R | susceptibility category (S/I/R) (host strain YMC17/03/R348): R | antibiotic susceptibility S/I/R (host strain YMC17/03/R585): R | susceptibility category (S/I/R) (host strain YMC17/03/R585): R | antibiotic susceptibility S/I/R (host strain YMC17/03/R1888): R | susceptibility category (S/I/R) (host strain YMC17/03/R1888): R | antibiotic susceptibility S/I/R (host strain YMC17/03/R3279): R | susceptibility category (S/I/R) (host strain YMC17/03/R3279): R | antibiotic susceptibility S/I/R (host strain YMC17/03/R4077): R | susceptibility category (S/I/R) (host strain YMC17/03/R4077): R | antibiotic susceptibility S/I/R (host strain YMC17/03/R4607): R | susceptibility category (S/I/R) (host strain YMC17/03/R4607): R | antibiotic susceptibility S/I/R (host strain YMC17/04/R488): R | susceptibility category (S/I/R) (host strain YMC17/04/R488): R | antibiotic susceptibility S/I/R (host strain YMC17/04/R640): R | susceptibility category (S/I/R) (host strain YMC17/04/R640): R | antibiotic susceptibility S/I/R (host strain YMC/17/05/R1095): R | susceptibility category (S/I/R) (host strain YMC/17/05/R1095): R
